Measurements taken from paper PMC7697191, “Identification of Novel Influenza Polymerase PB2 Inhibitors Using a Cascade Docking Virtual Screening Approach” (Molecules, 2020).

How the values were obtained:
[1] = system: PR/8-R292K mutant (H1N1, recombinant oseltamivir-resistant); type: cell-based, influenza A virus (H1N1)
[2] = system: PR/8-I38T mutant (H1N1, recombinant baloxavir-resistant); type: cell-based, influenza A virus (H1N1)

For O=C(O)[C@H]1C2CCC(CC2)[C@@H]1Nc1nc(-c2c[nH]c3ncc(F)cc23)ncc1F [VX-787, reference compound], the EC50 [1] was 4.14 ± 0.66 µM and the EC50 [2] was 2.34 ± 0.1 µM.

With C=CCn1cc(CNCc2noc(-c3ccc4c(c3)OCO4)n2)c(C)n1 [11D4] the EC50 [1] was 21.5 ± 5.49 µM and the EC50 [2] was 32.4 ± 1.52 µM.

For CCC(CC)O[C@@H]1C=C(C(=O)O)C[C@H](N)[C@H]1NC(C)=O [OC, Oseltamivir carboxylate, reference compound], the EC50 [1] was > 100 µM.

With Cc1cccnc1CCNc1nc2nonc2nc1NCc1cccs1 [21B1] the EC50 [1] was 14.6 ± 1.44 µM and the EC50 [2] was 37 ± 0.67 µM.

For C=CCn1cc(-c2cc(-c3ccc(C(=O)O)cc3)[nH]c(=N)c2C#N)cn1 [12C5], the EC50 [1] was 28.6 ± 0.99 µM and the EC50 [2] was 35.4 ± 1.02 µM.

With CCSc1ncc(-c2cc(-c3c(C)nn(C)c3C)nc(N)c2C#N)cn1 [21A5] the EC50 [1] was 9.27 ± 0.55 µM and the EC50 [2] was 14.1 ± 0.47 µM.
